# Measurements from patent US8609650B2, “Bridged bicyclic aryl and bridged bicyclic heteroaryl substituted triazoles useful as Axl inhibitors” (Rigel Pharmaceuticals, Inc., priority 2006, dated 2013).
# Target: T1, Axl (Homo sapiens, UniProt P30530)
# T1 construct: endogenous in cells; host or cells: HeLa cells
# T1 sequence (P30530 26-894): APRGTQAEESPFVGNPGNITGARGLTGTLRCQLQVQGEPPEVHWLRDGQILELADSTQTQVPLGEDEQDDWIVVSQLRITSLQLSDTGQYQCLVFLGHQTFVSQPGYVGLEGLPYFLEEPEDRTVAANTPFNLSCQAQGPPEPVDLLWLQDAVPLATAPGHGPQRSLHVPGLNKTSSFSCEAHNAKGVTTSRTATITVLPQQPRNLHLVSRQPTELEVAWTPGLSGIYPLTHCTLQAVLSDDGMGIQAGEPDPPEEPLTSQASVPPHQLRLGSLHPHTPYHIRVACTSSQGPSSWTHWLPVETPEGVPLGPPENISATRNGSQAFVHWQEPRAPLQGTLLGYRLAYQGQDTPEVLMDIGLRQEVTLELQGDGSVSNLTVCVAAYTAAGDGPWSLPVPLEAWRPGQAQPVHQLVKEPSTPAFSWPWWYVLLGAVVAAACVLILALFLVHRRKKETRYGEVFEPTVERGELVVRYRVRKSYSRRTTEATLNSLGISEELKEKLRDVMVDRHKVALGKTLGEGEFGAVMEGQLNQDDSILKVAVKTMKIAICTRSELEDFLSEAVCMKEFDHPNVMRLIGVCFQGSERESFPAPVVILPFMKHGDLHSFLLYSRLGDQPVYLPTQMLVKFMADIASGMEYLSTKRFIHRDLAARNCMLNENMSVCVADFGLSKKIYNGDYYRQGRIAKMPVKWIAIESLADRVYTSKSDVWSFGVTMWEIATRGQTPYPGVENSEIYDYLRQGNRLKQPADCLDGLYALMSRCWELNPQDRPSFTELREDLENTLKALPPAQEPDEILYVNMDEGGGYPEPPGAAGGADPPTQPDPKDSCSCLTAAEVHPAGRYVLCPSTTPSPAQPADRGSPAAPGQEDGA
# Test: Phospho-Akt In-Cell Western Assay (ability to inhibit Axl activity)
# Format: cell-based
# Conditions: Hela cells, stimulated by Axl-antibody cross-linking, phospho-Akt chemiluminescence normalized to relative cell number
# Procedure, shortened: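 HeLa cells starved 24 h in 0.5% FCS with Axl/Fc 500 ng/mL, pre-treated 1 h at 37° C with compound, then stimulated 5 min by anti-Axl antibody cross-linking. Fixed cells probed for phospho-Akt with HRP secondary; chemiluminescence read.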
row,Compound,IC50 [nM]
1,"CN1CCCC(Oc2ccc(Nc3nc(N)n(-c4ncc5c(n4)C4CCC5C4)n3)cc2)C1 (centres unmarked) [Compound 3, (5,8-methano-5,6,7,8-tetrahydroquinazolin-2-yl)-N^3-(4-(1-methyl(piperidin-3-yl)oxy)phenyl)-1H-1,2,4-triazole-3,5-diamine]",< 1000
2,"COc1cc2ncnc(-n3nc(Nc4ccc5c(c4)CC4CCC(C5)C4N4CCCC4)nc3N)c2cc1OC (centres unmarked) [Compound 16, 1-(6,7-dimethoxyquinazolin-4-yl)-N^3-(7-pyrrolidin-1-yl-6,8-ethano-6,7,8,9-tetrahydro-5H-benzo[7]annulene-3-yl)-1H-1,2,4-triazole-3,5-diamine]",< 1000
3,"1-((6R,8R)-6,8-dimethylmethano-5,6,7,8-tetrahydroquinoline-2-yl)-N^3-(3-fluoro-4-(4-(pyrrolidin-1-yl)piperidin-1-yl)phenyl)-1H-1,2,4-triazole-3,5-diamine [Compound 34]",< 1000
4,"Nc1nc(Nc2ccc3c(c2)CCC(=O)CC3)nn1-c1cc(-c2ccccc2)c2c(n1)C1CCN2CC1 [Compound 69, 1-(1,4-ethano-8-phenyl-1,2,3,4-tetrahydro-1,5-naphthyridin-6-yl)-N^3-(7-oxo-6,7,8,9-tetrahydro-5H-benzo[7]annulene-3-yl)-1H-1,2,4-triazole-3,5-diamine]",1000 to 10000
5,"Cc1csc2c(-n3nc(Nc4cnc5c(c4)C4CCC(C5)N4C)nc3N)nc(Cl)nc12 (centres unmarked) [Compound 24, 1-(2-chloro-7-methylthieno[3,2-d]pyrimidin-4-yl)-N^3-(5,7-ethano-5,7,8-trihydro-6-methyl-1,6-naphthyridin-3-yl)-1H-1,2,4-triazole-3,5-diamine]",< 1000
